The record followed here is ChEMBL document CHEMBL4811280, “Discovery of a simplified deguelin analog as an HSP90 C-terminal inhibitor for HER2-positive breast cancer” (Bioorg Med Chem Lett, 2021).

Data set [1] addresses T1, Heat shock protein HSP90 (Homo sapiens, UniProt P07900+P08238). Put plainly: Inhibition of HSP90 at C-terminus in trastuzumab-sensitive human BT-474 cells assessed as downregulation of survivin protein expression incubated for 72 hrs by Western blot analysis. The conditions noted are these: dose 2-10 µM. It is filed as cell-based.
In data set [2] the target is T1, Heat shock protein HSP90. Put plainly: Inhibition of HSP90 at C-terminus in trastuzumab-sensitive human BT-474 cells assessed as downregulation of HER2 protein expression incubated for 72 hrs by Western blot analysis. It is filed as cell-based. Particulars: dose 2-10 µM; call rule not given here. For orientation: A western blot detects proteins with antibodies after separation by electrophoresis.

The subject of data set [3] is BT-474. Put plainly: Antiproliferative activity against trastuzumab-sensitive HER2-positive human BT-474 cells assessed as cell viability at 10 uM after 72 hrs by MTS assay. The data set is classed as functional. Particulars: read-out: Activity. Background: Tetrazolium dyes change colour on reduction, which living cells bring about.
Data set [4] concerns HEK293. Put plainly: Cytotoxicity against human HEK293 cells assessed as reduction in cell viability at 10 uM after 72 hrs by MTS assay. The data set is classed as cell-based. The conditions noted are these: hek293, 72 h.
Data set [5] has as its target T1, Heat shock protein HSP90. Put plainly: Inhibition of HSP90 at N-terminus in human BT-474 cells assessed as increase in nuclear HSF1 protein level at 10 uM incubated for 24 hrs by immunostaining analysis. The data set is classed as cell-based. The conditions noted are these: bt-474, 24 h.
Data set [6] has as its target T1, Heat shock protein HSP90. As to the kind of experiment: Inhibition of HSP90 at N-terminus in human BT-474 cells assessed as increase in cytosolic HSP90 protein level at 10 uM incubated for 24 hrs by immunostaining analysis. It is filed as cell-based. Particulars: bt-474, 24 h.
Data set [7] relates to MDA-MB-453. As to the kind of experiment: Antiproliferative activity against trastuzumab-resistant human MDA-MB-453 cells assessed as reduction in cell viability after 72 hrs by MTS assay. The conditions noted are these: dose 0.1-20 µM. The data set is classed as functional, cell-based.
Data set [8] deals with T1, Heat shock protein HSP90. Put plainly: Inhibition of HSP90 at C-terminus in trastuzumab-resistant human […] cells assessed as downregulation of Akt protein expression incubated for 72 hrs by Western blot analysis. The data set is classed as cell-based. The conditions noted are these: JIMT-1, dose 2-10 µM.
Data set [9] addresses T1, Heat shock protein HSP90. Put plainly: Inhibition of HSP90 at C-terminus in trastuzumab-resistant human […] cells assessed as downregulation of survivin protein expression incubated for 72 hrs by Western blot analysis. The data set is classed as cell-based. The conditions noted are these: JIMT-1, dose 2-10 µM.
The target in data set [10] is T1, Heat shock protein HSP90. Put plainly: Inhibition of HSP90 at C-terminus in trastuzumab-resistant human […] cells assessed as downregulation of cyclinD1 protein expression incubated for 72 hrs by Western blot analysis. It is filed as cell-based. The conditions noted are these: JIMT-1, dose 2-10 µM.
The subject of data set [11] is JIMT-1. As to the kind of experiment: Antiproliferative activity against trastuzumab-resistant HER2-positive human JIMT-1 cells assessed as cell viability at 10 uM after 72 hrs by MTS assay. It is filed as functional. The conditions noted are these: read-out: Activity.
Data set [12] deals with JIMT-1. As to the kind of experiment: Antiproliferative activity against trastuzumab-resistant HER2-positive human JIMT-1 cells assessed as reduction in cell viability after 72 hrs by MTS assay. The data set is classed as functional, cell-based. Particulars: dose 0.1-20 µM.
Data set [13] has as its system BT-474. As to the kind of experiment: Antiproliferative activity against trastuzumab-sensitive HER2-positive human BT-474 cells assessed as reduction in cell viability after 72 hrs by MTS assay. Particulars: dose 0.1-20 µM. The data set is classed as functional, cell-based.
Data set [14] addresses T1, Heat shock protein HSP90. Put plainly: Inhibition of HSP90 at C-terminus in trastuzumab-sensitive human BT-474 cells assessed as downregulation of cyclinD1 protein expression incubated for 72 hrs by Western blot analysis. It is filed as cell-based. Particulars: dose 2-10 µM.
The target in data set [15] is T1, Heat shock protein HSP90. As to the kind of experiment: Inhibition of HSP90 at C-terminus in trastuzumab-sensitive human BT-474 cells assessed as downregulation of Akt protein expression incubated for 72 hrs by Western blot analysis. The data set is classed as cell-based. Particulars: dose 2-10 µM.
Data set [16] has as its system SK-BR-3. Put plainly: Antiproliferative activity against trastuzumab-sensitive human SK-BR-3 cells assessed as reduction in cell viability after 72 hrs by MTS assay. It is filed as functional, cell-based. Particulars: dose 0.1-20 µM.
For data set [17], the target named is T1, Heat shock protein HSP90. As to the kind of experiment: Inhibition of HSP90 at C-terminus in trastuzumab-resistant human […] cells assessed as downregulation of HER2 protein expression incubated for 72 hrs by Western blot analysis. The data set is classed as cell-based. Particulars: JIMT-1, dose 2-10 µM.

With `COc1cc2c(C(OC(=O)C3CC3)c3ccc4c(c3OC)C=CC(C)(C)O4)ccnc2cc1OCCCN1CCN(C)CC1` (configuration not stated), the inhibition entry in [1], in data set [2], in [8], in [9], in data set [10] and in data set [14] was “Dose-Dependent Effect” each time. Further, the inhibition result in [15] and in data set [17] was “Dose-Dependent Effect” each time. Further, the viability at 10 µM in [3] and in data set [11] was less than 20% each time. Further, the Activity result was “Toxic” in data set [4]; “Dose-Dependent Effect” in data set [7]; “Dose-Dependent Effect” in [12]; “Dose-Dependent Effect” in data set [13]; “Dose-Dependent Effect” in data set [16]. The “inhibition (INH)” value in data set [5] and in data set [6] was “Not Active” each time.
